# Test results from publication PMC4435638, “Phase I trial of volasertib, a Polo-like kinase inhibitor, plus platinum agents in solid tumors: safety, pharmacokinetics and activity” (Investigational New Drugs, 2015).
# Read-outs that look alike come from different tables or passages of the source.
# Key:
# [1] = system: in vitro and murine xenograft models; conditions: BI 2536 combined with cisplatin, cited from earlier work
# [2] = Plasma pharmacokinetics of volasertib and CD 10899 (HPLC-MS/MS); assay type: in vivo, human; conditions: for clearance / Vd / half-life: human, intravenous; for clearance / Vd / half-life / AUC0-∞,norm, gMean / Cmax,norm, gMean: plasma; for clearance / Vd / half-life / AUC0-∞,norm, gMean: n = 28; for clearance: read-out: CL (total clearance), gMean; for Vd: read-out: Vss (apparent volume of distribution at steady state), gMean; for half-life: read-out: t1/2 (terminal half-life), gMean (converted)
# Experimental: Blood was collected at specified time points during the first and second cycles of each treatment schedule for pharmacokinetic analyses to determine the plasma concentration of volasertib and/or total platinum. Plasma concentrations in cycle 1 were determined before the start of platinum infusions (–1 hour 35 minutes relative to the start of the volasertib infusion), shortly before the end of platinum infusion (–30 minutes), during volasertib infusion (1 hour), immediately before the end of volasertib infusion (2 hours), and at 3, 8, 24, 48, 168, and 336 hours after the start of volasertib infusion. The plasma concentrations in cycle 2 were determined before the start of platinum infusions (–1 hour 35 minutes), shortly before end of platinum infusion (–30 minutes), and immediately before the end of volasertib infusion (2 hours). Plasma concentrations of both volasertib and CD 10899, the predominant circulating hydroxylated metabolite of volasertib previously identified in early clinical studies of volasertib metabolism in cancer patients, were determined simultaneously by validated high performance liquid chromatography-tandem mass spectrometry (HPLC-MS/MS) assay using [D3]volasertib and [D3]CD 10899 as internal standards. The samples were subjected to solid-phase extraction in a 96-well plate format. Chromatography was achieved on an analytical reversed-phase HPLC column with gradient elution. The substances were detected and quantified by HPLC-MS/MS using electrospray ionization in the positive ion mode. Assay performance during the study was assessed by back-calculation of calibration standards, tabulation of the standard curve fit function parameters and measurement of quality control samples. […] Samples were diluted and acidified prior to analysis and were introduced into the ICP-MS system without further sample preparation. The ions were separated and detected in the mass spectrometer and the peak areas of platinum and lutetium were determined.
# [3] = system: unrelated kinases (>50 other kinases); set-up: method as in PMID 19383823; conditions: at concentrations up to 10 μM; cited from earlier work
# Plk = system: Plk; set-up: method as in PMID 19383823; conditions: cited from earlier work
# [4] = system: patients with progressive advanced or metastatic solid tumors; set-up: method as in PMID 22119200; conditions: cited from earlier work
# [5] = set-up: method as in PMID 19383823; conditions: preclinical studies, compared with BI 2536; cited from earlier work
# [6] = volasertib combined with carboplatin
# [7] = volasertib combined with cisplatin
SMILES,Efficacy compared with cisplatin alone ([1]; in vitro and murine xenograft models),Combination effect versus either therapy alone ([1]; preclinical data),Influence of cisplatin or carboplatin on the pharmacokinetics or metabolism of volasertib ([2]; co-administration),"clearance [2, 6] [mL/min]","Vd [2, 6] [L]","half-life [2, 6] [h]","clearance [2, 7] [mL/min]","Vd [2, 7] [L]","half-life [2, 7] [h]","AUC0-∞,norm, gMean ([2]; volasertib i.v. infusion combined with carboplatin)","Cmax,norm, gMean ([2]; volasertib i.v. infusion combined with carboplatin, n = 29)","AUC0-∞,norm, gMean ([2]; volasertib i.v. infusion combined with cisplatin)","Cmax,norm, gMean ([2]; volasertib i.v. infusion combined with cisplatin, n = 30)",Inhibition of unrelated kinases (>50 other kinases) [3],Concentrations at which Plk is targeted (mitotic arrest and apoptosis) (Plk),"MTD of single-agent volasertib ([4]; phase I study, monotherapy) [mg]","Recommended dose for further clinical investigation ([4]; single agent, based on overall tolerability) [mg]","Patients with confirmed partial response (PR) ([4]; single agent, urothelial cancer, ovarian cancer, or melanoma)",Terminal half-life (t1/2) [5],Volume of distribution [5]
CC[C@@H]1C(=O)N(C)c2cnc(Nc3ccc(C(=O)NC4CCN(C)CC4)cc3OC)nc2N1C1CCCC1 [BI 2536],improved efficacy,may confer synergism,,,,,,,,,,,,,,,,,,
CC[C@@H]1C(=O)N(C)c2cnc(Nc3ccc(C(=O)N[C@H]4CC[C@H](N5CCN(CC6CC6)CC5)CC4)cc3OC)nc2N1C(C)C [Volasertib],,,no influence,865,7550,166,999,6780,137,19.3 [ng · h/mL]/mg,1.40 [ng/mL]/mg,16.7 [ng · h/mL]/mg,1.29 [ng/mL]/mg,does not inhibit,low nanomolar concentrations,400,300,three patients,long terminal half-life,high volume of distribution
